According to patent US20100190694A1, “Methods for identifying patients who will respond well to cancer treatment” (priority 2009, published 2010):
pIC50: −log10 of the molar value. Several values for one entry are separate records, joined by “and”; a condition that tells them apart may be missing. Equal values may be shown once. Read-outs that look alike come from different tables or passages of the source. Marks after values point to notes of the source that are not given here.

Key:
tumour = assay: xenograft models, tumour growth; conditions: in vivo
[1] = tested on: diverse tumour cell lines; assay: proliferation of diverse tumour cell lines; type: cell-based; conditions: range over cell lines; read-out: IC50, blocks proliferation of diverse tumour cell lines
[2] = tested on: thymidylate synthase (TS); conditions: HCT116 colon cancer cells, in vitro; cited from earlier work
[3] = tested on: dihydropyrimidine dehydrogenase (DPD); assay: DPD mRNA by RTQ-PCR in tumor biopsies; type: in vivo, human
Method: (§1) DLTs, i.e. grade ¾ non-hematologic toxicities and grade 4 neutropenia or thrombocytopenia, were determined in cycles 1 and 2. Safety was assessed by NCI CTC (v. 3) and efficacy by RECIST criteria. Expression of TS, DPD, and p21 mRNA was measured by RTQ-PCR in PBMC (20 patients at baseline, and pre-dosing, 6 and 24-hours post-dosing, on days 1 and 4 in cycle 1) and in tumor biopsies (8 patients at baseline and once on days 4 or 5 in cycle 1). Results were expressed as gene expression relative to actin (i.e. TS/Actin Relative Gene Expression, DPD/Actin Relative Gene Expression, and p21/Actin Relative Gene Expression).

p21 [4] = assay: p21 mRNA by RTQ-PCR in PBMC; type: in vivo, human; conditions: for P21 maximum percentage change versus baseline: one value per patient
Method: as §1

[5] = tested on: rapidly proliferating cells; assay: cell cycle arrest and apoptosis; type: cell-based
[6] = set-up: species or system human; conditions: in vivo
Method: Cardiac safety was analyzed by extensive ECG monitoring (>3.000 ECG's assessed) in combination with PK assessments of Bel. Based on analyses by a central laboratory, the main findings (mean changes from baseline at the different dose-levels and for Bel alone and in combination with FU) were: • Heart rate, changes of −1 to +11 bpm, without outliers or any dose relationship. • PR duration, changes of −8 to +2 ms, without outliers or any dose relationship. • QRS duration, changes of −3 to +4 ms, without outliers or any dose relationship. • QTcF duration, changes of −4 to +18 ms, without any dose relationship. One outlier pat with a new QTcF value >500 ms was identified at dose-level 1000/750 (max post-infusion QTcF value 522 ms from pre-infusion value of 487 ms).
(§2) Phase I dose-escalation, multi-center study with the objectives to assess: • maximum tolerated dose and dose limiting toxicities (DLT) of Bel in combination with FU • impact of Bel on expression of TS, dihydropyrimidine dehydrogenase (DPD), and p21, in tumor and non-tumor surrogate tissue (peripheral blood mononuclear cells; PBMC) • preliminary anti-tumor activity of Bel in combination with FU • impact of Bel on ECG parameters • pharmacokinetics (PK) of Bel when given in combination with FU

[7] = tested on: TS, DPD, and p21 expression in PBMC; assay: '2 out of 3' TS/DPD/p21 expression pattern in PBMC versus clinical outcome; type: in vivo, human
Excerpt: Among the 20 patients where an attempt was made to analyze TS, DPD, and p21 in PBMC, 2 patients seemed to have a clearly favorable clinical outcome (patients 101-3 and 102-14 with treatment durations on Bel/FU of 8 and 14 cycles, respectively; see Tables 4 and 6), i.e. a 10% favorable outcome rate without selection.
If selection of patients for treatment with Bel/FU would have been done after an initial-dose of Bel and analyses of TS, DPD, and p21 expression in PBMC 6-hours post Bel dosing, the favorable outcome rate could have been increased to between 33% and 67% by selection of patients based on a “2 out of 3” positive expression pattern (positive assumed to be TS down-, DPD down-, and p21 up-regulation in comparison to a pre-treatment value).
Selection based on one single sample taken 6-hours post Bel dosing (Table A): 6 (30%; patients 101-3/5/6/7, 102-6/14) of the 20 patients have “2 out of 3” markers showing a favorable expression change after Bel dosing, and 2 (33%) of the 6 patients have clearly favorable clinical outcomes. Note, also patients 101-6 and 101-7 with a “2 out of 3” pattern, but not counted as having “clearly favorable clinical outcome” have longer than median treatment durations on Bel/FU (i.e. 4 cycles; see Table 4).
Selection based on mean of two samples taken 6-hours post Bel dosing (Table B): 3 (15%; patients 101-3, 102-6/14) of the 20 patients have “2 out of 3” markers showing a favorable expression change after Bel dosing, and 2 (67%) of the 3 patients have clearly favorable clinical outcomes.
as §1

[8] = tested on: dihydropyrimidine dehydrogenase (DPD); assay: DPD mRNA by RTQ-PCR in PBMC; type: in vivo, human; conditions: for DPD maximum percentage change versus baseline: one value per patient
Method: as §1

[9] = tested on: thymidylate synthase (TS); assay: TS mRNA by RTQ-PCR in PBMC; type: in vivo, human; conditions: for TS maximum percentage change versus baseline: one value per patient
Method: as §1

[10] = tested on: thymidylate synthase (TS); assay: TS mRNA by RTQ-PCR in tumor biopsies; type: in vivo, human; conditions: Bel monotherapy, Bel 1000 mg/m^2/day, patients with pre- and post-Bel samples
Method: as §1

[11] = Phase I study: pharmacokinetics of Bel; type: in vivo, human; conditions: for half-life: read-out: T1/2, group mean (±SD) (converted)
Excerpt: as §2
Treatment cycles of 21 days included Bel alone in cycle 1, and Bel in combination with FU in all subsequent cycles (FIG. 4). Treatment was to continue until significant treatment-related toxicity or progressive disease.

p21 [12] = assay: p21 mRNA by RTQ-PCR in tumor biopsies; type: in vivo, human; conditions: for patients with up-regulation of p21 in tumor tissue: Bel monotherapy, Bel 1000 mg/m^2/day
Method: as §1

[13] = patient tumor samples, cycle 1 day 4 or 5, Bel 1000 mg/m^2/day, one value per patient, listed as belinostat
[14] = PXD 600, one value per patient, listed as PXD
[15] = PXD 600, one value per patient, listed as PXD, with FU dose 250
[16] = PXD 600, one value per patient, listed as PXD, with FU dose 1000
[17] = PXD 1000, one value per patient, listed as PXD
[18] = PXD 1000, one value per patient, listed as PXD, with FU dose 250
[19] = PXD 1000, one value per patient, listed as PXD, with FU dose 500
[20] = PXD 1000, one value per patient, listed as PXD, with FU dose 1000
[21] = cycle 1, Belinostat Dose 300 mg/m^2/day
[22] = cycle 1, Belinostat Dose 600 mg/m^2/day
[23] = cycle 1, Belinostat Dose 1000 mg/m^2/day
[24] = belinostat 1000 mg/m^2/day alone, Cycle 2 Day 1, n = 14
[25] = belinostat 1000 mg/m^2/day in combination with FU, Cycle 2 Day 5, n = 13

In the case of `O=C(/C=C/c1cccc(S(=O)(=O)Nc2ccccc2)c1)NO` [PXD-101], the “tumour growth in xenograft models” value (tumour) is given as “slows tumour growth”, the pIC50 [1] is given as 5.61 to 7.10 and the “expression of thymidylate synthase (TS)” value [2] is given as “reduce the expression”. For the same compound, the “DPD expression change in tumor tissue” value ([3]; Bel monotherapy, Bel 1000 mg/m^2/day) was “minor changes”, the “DPD Change vs baseline” value [3, 13] was “≈” and the “6mean-p21, Change from baseline at 6 h based on mean of d1 + d4” value (“6mean-p21, Change from baseline” below) (p21 [4]; PXD 300, one value per patient) was 41%. The “D1-6: p21, Change from baseline at 6 h day 1” value (“D1-6: p21, Change” below) (p21 [4]; PXD 300, one value per patient) was 35%, the “D1-6: p21, Change” value (p21 [4]; [14]) was −9% and 31% and −48% and the “6mean-p21, Change from baseline” value (p21 [4]; [15]) was −16% and −55%. For the same compound, the “6mean-p21, Change from baseline” value (p21 [4]; [16]) was 15%, the “D1-6: p21, Change” value (p21 [4]; [17]) was 272% and −54% and 115% and −25% and 16% and 43% and 21% and 13% and −11% and 74% and 68% and the “6mean-p21, Change from baseline” value (p21 [4]; [18]) was 272% and −55% and 155% and −17% and 44% and 32%. The “6mean-p21, Change from baseline” value (p21 [4]; [19]) was 21% and −25%, the “6mean-p21, Change from baseline” value (p21 [4]; [20]) was −35% and 23% and 74% and the “P21 maximum percentage change versus baseline” value (p21 [4]; [21]) was 48% *. For the same compound, the “P21 maximum percentage change versus baseline” value (p21 [4]; [22]) was 43% * and 88% * and −86%, the “P21 maximum percentage change versus baseline” value (p21 [4]; [23]) was 68% * and 972% * and −72% and 715% * and 62% * and 156% * and 43% * and −71% and −83% and −86% and 74% * and −47% and the “cell cycle arrest and apoptosis” value [5] was “causes cell cycle arrest and apoptosis”. The “max post-infusion QTcF value of the one outlier pat” value ([6]; human) was 522 ms, the “effect on heart rate, AV conduction, cardiac depolarization, morphology or cardiac re-polarization” value [6] was “no clear signal of any clinically relevant effect” and the “patients with '3 of 3 correct' marker pattern” value ([7]; 6 h, mean of d1 + d4) was 2 pts. For the same compound, the “patients with '2 of 3 correct' marker pattern (down TS-down DPD-up p21)” value ([7]; 6 h, mean of d1 + d4, of 20 patients) was 3 pts, the “patients with '3 of 3 correct' marker pattern” value ([7]; 6 h day 1) was 2 pts and the “patients with '2 of 3 correct' marker pattern (down TS-down DPD-up p21)” value ([7]; 6 h day 1, of 20 patients) was 6 pts. For the same compound, the “6mean-DPD, Change from baseline at 6 h based on mean of d1 + d4” value (shortened to “6mean-DPD, Change from baseline”) ([8]; PXD 300, one value per patient) was 131%, the “D1-6: DPD, Change from baseline at 6 h day 1” value (from here on “D1-6: DPD, Change”) ([8]; PXD 300, one value per patient) was 136% and the “D1-6: DPD, Change” value [8, 14] was 30% and −87% and −56% and −13%. For the same compound, the “6mean-DPD, Change from baseline” value [8, 15] was −22% and −37% and −13%, the “6mean-DPD, Change from baseline” value [8, 16] was −59% and the “D1-6: DPD, Change” value [8, 17] was −55% and −57% and 78% and −62% and −28% and 373% and 14% and 6% and 160% and −20% and 547%. For the same compound, the “6mean-DPD, Change from baseline” value [8, 18] was −55% and 8% and 124% and −22% and 267% and 372%, the “6mean-DPD, Change from baseline” value [8, 19] was 278% and 56% and the “6mean-DPD, Change from baseline” value [8, 20] was 15% and 73% and −20%. The “DPD maximum percentage change versus baseline” value [8, 21] was 136%, the “DPD maximum percentage change versus baseline” value [8, 22] was −74% * and −87% * and −73% * and −13% * and the “DPD maximum percentage change versus baseline” value [8, 23] was 547% and 91% and 220% and 169% and −83% * and 563% and 373% and 98% and −60% * and 160% and −20% * and 62%. For the same compound, the “6mean-TS, Change from baseline at 6 h based on mean of d1 + d4” value (“6mean-TS, Change from baseline” below) ([9]; PXD 300, one value per patient) was 410%, the “D1-6: TS, Change from baseline at 6 h day 1” value (“D1-6: TS, Change from baseline” below) ([9]; PXD 300, one value per patient) was 486% and the “D1-6: TS, Change from baseline” value [9, 14] was 62% and −87% and 144%. For the same compound, the “6mean-TS, Change from baseline” value [9, 15] was 126% and 144%, the “6mean-TS, Change from baseline” value [9, 16] was −65% and the “D1-6: TS, Change from baseline” value [9, 17] was −51% and 63% and −21% and 88% and −14% and 274% and 238%. The “6mean-TS, Change from baseline” value [9, 18] was −51% and 54% and 286% and 169% and 182%, the “6mean-TS, Change from baseline” value [9, 20] was 51% and 142% and the “TS maximum percentage change versus baseline” value [9, 21] was 486%. The “TS maximum percentage change versus baseline” value [9, 22] was 190% and −87% * and 144%, the “TS maximum percentage change versus baseline” value [9, 23] was 238% and −51% * and 63% and 594% and 250% and 116% and 274% and −67% * and 214% and the “patients with TS down-regulated in tumor tissue” value ([10]; listed as Bel) was 4 of 4. For the same compound, the “patients with TS down-regulated in tumor tissue” value ([10]; listed as belinostat) was “Four of 4”, the “CL, group mean (±SD)” value [11, 24] was 37,580 (10,893) ml/hr/m^2 and the “Vss, group mean (±SD)” value [11, 24] was 16,528 (4,918) ml/m^2. For the same compound, the “Vz, group mean (±SD)” value [11, 24] was 58,362 (26,136) ml/m^2, the “CL, group mean (±SD)” value [11, 25] was 30,141 (13,824) ml/hr/m^2 and the “Vss, group mean (±SD)” value [11, 25] was 13,538 (7,253) ml/m^2. The “Vz, group mean (±SD)” value [11, 25] was 53,316 (29,753) ml/m^2, the PK linearity ([11]; day 1 across all dose cohorts (n=22)) was “linear PK” and the half-life ([11]; human, in vivo, intravenous, 1000 mg/m2, belinostat 1000 mg/m^2/day alone, Cycle 2 Day 1, n = 14) was 1 h. For the same compound, the AUC(0-inf) ([11]; human, in vivo, intravenous, belinostat 1000 mg/m^2/day in combination with FU, Cycle 2 Day 5, n = 13, read-out: AUC0-∞, group mean (±SD)) was 33300 ng·h/mL, the AUC ([11]; human, in vivo, intravenous, belinostat 1000 mg/m^2/day in combination with FU, Cycle 2 Day 5, n = 13, read-out: AUCall, group mean (±SD)) was 33200 ng·h/mL and the Cmax ([11]; human, in vivo, intravenous, belinostat 1000 mg/m^2/day in combination with FU, Cycle 2 Day 5, n = 13, read-out: Cmax, group mean (±SD)) was 49500 ng/mL. The half-life ([11]; human, in vivo, intravenous, belinostat 1000 mg/m^2/day in combination with FU, Cycle 2 Day 5, n = 13) was 1.2 h, the “patients with up-regulation of p21 in tumor tissue” value (p21 [12]; listed as Bel) was “Three of 4” and the “patients with up-regulation of p21 in tumor tissue” value (p21 [12]; listed as belinostat) was 3 of the 4. For the same compound, the “p21 Change vs baseline” value (p21 [12]; [13]) was “≈”.
